Test results taken from PubChem BioAssay AID1845216 (Molecular Pharmacology Branch, DTP, NCI, 2023).

Test system: SW 982 tumor spheroid viability
Assay: Anticancer human tumor SW 982 cell line growth inhibition;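 note: spheroids exposed to compound for 7 days before readout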
Settings: spheroids with HUVEC and MSC; for IC50: curve of first compound; for viability, T/C: stronger effect = lower value
From the text: Multicellular complex tumor spheroid response to DNA repair inhibitors in combination with DNA-damaging drugs
This study explores the anticancer activities of DNA-damaging drugs and inhibitors of DNA damage repair, both as single agents and in combinations. Complex tumor spheroids comprised of malignant cells, endothelial cells and mesenchymal stem cells served as an in vitro model for human solid tumors. This model system incorporates physiologically relevant features and patient-derived or established malignant cell lines with clinically relevant genetic alterations from many tumor types. Twenty-six patient-derived or established malignant cell lines were evaluated representing sarcoma, melanoma, small cell lung cancer (SCLC), non-small cell lung cancer (NSCLC), as well as bladder, ovarian and pancreatic cancers. The concentration ranges selected for each drug and investigational agent were based upon clinically achievable concentrations if the clinical Cmax of the agent was known.
Compounds. The drugs and compounds olaparib (NSC753686), talazoparib (NSC767125), berzosertib (NSC777718), elimusertib (NSC800525), nedisertib (NSC802822), VX-984 (NSC792969), AZD-1390 (NSC803789), temozolomide (NSC362856), topotecan (NSC609699), trabectedin (NSC813783), staurosporine (NSC755774), and gemcitabine (NSC613327) were obtained from the National Cancer Institute (NCI) Developmental Therapeutics Program Chemical Repository. The FDA-approved anticancer drug set is available from the Developmental Therapeutics Program at https://dtp.cancer.gov/organization/dscb/obtaining/available_plates.htm. […] The stock solutions were prepared in dimethyl sulfoxide (DMSO, Sigma-Aldrich, St. Louis, MO, cat. D2650) at 400-fold the tested concentration and stored at -70 degrees C. Prior to their use, the stock solutions were diluted in fresh medium and the final DMSO concentration in the assay was 0.25% (v/v). All drugs and investigational agents were tested over a range starting from a high concentration at or near the clinical Cmax and decreasing in half-log increments. If the clinical Cmax for an agent had not been determined, the highest concentration tested was 10 microM.
Cell Lines. The patient-derived cancer cell (PDC) lines: 156681-154-R-J1-PDC, 283228-195-R-J1-PDC, 287954-098-R-J1-PDC, 292921-168-R-J2-PDC, 349418-098-R-PDC, 425362-245-T-J1-PDC, 556581-035-R-J1-PDC, and BL0293-F563-PDC were received from the NCI Patient-Derived Models Repository (PDMR, https://pdmr.cancer.gov). The established cell lines HS-SY-2 (RRID:CVCL_8719), MPNST, and SYO-1 (RRID:CVCL_7146) were obtained from the Sloan Kettering Institute. The alveolar soft parts sarcoma cell line ASPS-1 (RRID:CVCL_S738) was established at the NCI and grown from internal seed stocks. The following established cell lines were purchased from the American Type Culture Collection (ATCC, Manassas, VA): G-401 (ATCC, cat. CRL-1441, RRID:CVCL_0270), SW982 (ATCC, cat. HTB-93, RRID:CVCL_1734), VA-ES-BJ (ATCC, cat. CRL-2138, RRID:CVCL_1785), NCI-H719 (ATCC, cat. CRL-5837, RRID:CVCL_1582), NCI-H196 (ATCC, cat. CRL-5823, RRID:CVCL_1509), NCI-H841 (ATCC, cat. CRL-5845, RRID:CVCL_1595), NCI-H1618 (ATCC, cat. CRL-5879, RRID:CVCL_1480), NCI-H1876 (ATCC, cat. CRL-5902, RRID:CVCL_1503), DMS 114 (ATCC, cat. CRL-2066; RRID:CVCL_1174), NCI-H211 (ATCC, cat. CRL-5824; RRID:CVCL_1529), and SW 1271 (ATCC, cat. CRL-2177, RRID:CVCL_1716). The small cell lung cancer cell line COR-L88 was purchased from Sigma-Aldrich (cat. 92031917-1VL, RRID:CVCL_1141). The non-small cell lung cancer cell lines NCI-H226 (RRID:CVCL_1544) and NCI-H322M (RRID:CVCL_1557) were established at the NCI and grown from internal seed stocks. Pooled donor human umbilical vein endothelial cells (HUVEC, Lonza, cat. CC-2519) and human mesenchymal stem cells (hMSC, Lonza, cat. PT-2501) were purchased from Lonza (Walkersville, MD).
Cell Culture. All cells were maintained in an incubator at 37 degrees C and 5% CO2 with 95% humidity. […]

`Cc1cc(C)c(CNC(=O)c2cc(-c3ccc(CN4CCOCC4)cc3)cc3c2cnn3C2CCCC2)c(=O)[nH]1` + CC[C@@]1(O)C(=O)OCc2c1cc1n(c2=O)Cc2cc3c(CN(C)C)c(O)ccc3nc2-1 was tested, and the IC50 (second compound 0.003 µM) was > 10000 nM, the IC50 (second compound 0.00949 µM) was > 10000 nM and the IC50 (second compound 0.03 µM) was > 10000 nM. The IC50 (second compound 0.0949 µM) was > 10000 nM, the IC50 (second compound 0.3 µM) was 3030 nM and the viability, T/C (second compound 0.003 µM, first compound 0.0316 µM) was 96.8%. The viability, T/C (second compound 0.003 µM, first compound 0.1 µM) was 102%, the viability, T/C (second compound 0.003 µM, first compound 0.316 µM) was 103% and the viability, T/C (second compound 0.003 µM, first compound 1 µM) was 90.4%. For the same compound, the viability, T/C (second compound 0.003 µM, first compound 3.16 µM) was 85.9%, the viability, T/C (second compound 0.003 µM, first compound 10 µM) was 61.6% and the viability, T/C (second compound 0.00949 µM, first compound 0.0316 µM) was 96.1%. The viability, T/C (second compound 0.00949 µM, first compound 0.1 µM) was 86.6%, the viability, T/C (second compound 0.00949 µM, first compound 0.316 µM) was 86.5% and the viability, T/C (second compound 0.00949 µM, first compound 1 µM) was 85%. For the same compound, the viability, T/C (second compound 0.00949 µM, first compound 3.16 µM) was 83%, the viability, T/C (second compound 0.00949 µM, first compound 10 µM) was 63.3% and the viability, T/C (second compound 0.03 µM, first compound 0.0316 µM) was 97%. It also gave a viability, T/C (second compound 0.03 µM, first compound 0.1 µM) of 88.7%, a viability, T/C (second compound 0.03 µM, first compound 0.316 µM) of 101% and a viability, T/C (second compound 0.03 µM, first compound 1 µM) of 83.4%. The viability, T/C (second compound 0.03 µM, first compound 3.16 µM) was 86.2%, the viability, T/C (second compound 0.03 µM, first compound 10 µM) was 62.9% and the viability, T/C (second compound 0.0949 µM, first compound 0.0316 µM) was 87.7%. For the same compound, the viability, T/C (second compound 0.0949 µM, first compound 0.1 µM) was 87.4%, the viability, T/C (second compound 0.0949 µM, first compound 0.316 µM) was 85.2% and the viability, T/C (second compound 0.0949 µM, first compound 1 µM) was 89.6%. The viability, T/C (second compound 0.0949 µM, first compound 3.16 µM) was 75.6%, the viability, T/C (second compound 0.0949 µM, first compound 10 µM) was 61.7% and the viability, T/C (second compound 0.3 µM, first compound 0.0316 µM) was 63.7%. It also gave a viability, T/C (second compound 0.3 µM, first compound 0.1 µM) of 57.3%, a viability, T/C (second compound 0.3 µM, first compound 0.316 µM) of 54.7% and a viability, T/C (second compound 0.3 µM, first compound 1 µM) of 55%. The viability, T/C (second compound 0.3 µM, first compound 3.16 µM) was 52.3% and the viability, T/C (second compound 0.3 µM, first compound 10 µM) was 39%.
`Cc1sc2c(c1C)C(c1ccc(Cl)cc1)=NC(CC(=O)Nc1ccc(O)cc1)c1nnc(C)n1-2` (stereo not given) + CC[C@@]1(O)C(=O)OCc2c1cc1n(c2=O)Cc2cc3c(CN(C)C)c(O)ccc3nc2-1 gave an IC50 (second compound 0.003 µM) of 285 nM, an IC50 (second compound 0.00949 µM) of 553 nM and an IC50 (second compound 0.03 µM) of 490 nM. It also gave an IC50 (second compound 0.0949 µM) of 450 nM, an IC50 (second compound 0.3 µM) of 254 nM and a viability, T/C (second compound 0.003 µM, first compound 0.00949 µM) of 112%. The viability, T/C (second compound 0.003 µM, first compound 0.03 µM) was 110%, the viability, T/C (second compound 0.003 µM, first compound 0.0949 µM) was 76.4% and the viability, T/C (second compound 0.003 µM, first compound 0.3 µM) was 49.8%. For the same compound, the viability, T/C (second compound 0.003 µM, first compound 0.949 µM) was 40.1%, the viability, T/C (second compound 0.003 µM, first compound 3 µM) was 30.5% and the viability, T/C (second compound 0.00949 µM, first compound 0.00949 µM) was 97%. The viability, T/C (second compound 0.00949 µM, first compound 0.03 µM) was 98.9%, the viability, T/C (second compound 0.00949 µM, first compound 0.0949 µM) was 81.5% and the viability, T/C (second compound 0.00949 µM, first compound 0.3 µM) was 63.8%. The viability, T/C (second compound 0.00949 µM, first compound 0.949 µM) was 36.9%, the viability, T/C (second compound 0.00949 µM, first compound 3 µM) was 36.4% and the viability, T/C (second compound 0.03 µM, first compound 0.00949 µM) was 97.1%. The viability, T/C (second compound 0.03 µM, first compound 0.03 µM) was 95.8%, the viability, T/C (second compound 0.03 µM, first compound 0.0949 µM) was 83.2% and the viability, T/C (second compound 0.03 µM, first compound 0.3 µM) was 58.4%. It also gave a viability, T/C (second compound 0.03 µM, first compound 0.949 µM) of 38.8%, a viability, T/C (second compound 0.03 µM, first compound 3 µM) of 29.8% and a viability, T/C (second compound 0.0949 µM, first compound 0.00949 µM) of 95.2%. It also gave a viability, T/C (second compound 0.0949 µM, first compound 0.03 µM) of 92.1%, a viability, T/C (second compound 0.0949 µM, first compound 0.0949 µM) of 85.9% and a viability, T/C (second compound 0.0949 µM, first compound 0.3 µM) of 57.8%. For the same compound, the viability, T/C (second compound 0.0949 µM, first compound 0.949 µM) was 35.5%, the viability, T/C (second compound 0.0949 µM, first compound 3 µM) was 29.2% and the viability, T/C (second compound 0.3 µM, first compound 0.00949 µM) was 73.5%. It also gave a viability, T/C (second compound 0.3 µM, first compound 0.03 µM) of 80.6%, a viability, T/C (second compound 0.3 µM, first compound 0.0949 µM) of 71% and a viability, T/C (second compound 0.3 µM, first compound 0.3 µM) of 45.6%. It also gave a viability, T/C (second compound 0.3 µM, first compound 0.949 µM) of 30.4% and a viability, T/C (second compound 0.3 µM, first compound 3 µM) of 22.9%.
